For 18 molecules, IC50 and AC50 results are on record in patent US20220289732A1, “HETEROCYCLIC WDR5 INHIBITORS AS ANTI-CANCER COMPOUNDS” (NOVARTIS AG, priority 2019, published 2022).

The target of one assay is WDR5 (Homo sapiens, UniProt P61964). In words: WDR5 HTRF binding assay. The conditions noted are these: read-out: (a) WDR5 HTRF Pep Val v.1[Inhibitor/IC50]Qualified AC50. Here is the method: The compounds were serially diluted 3-fold in DMSO to obtain a total of twelve concentrations. Then the test compounds at each concentration (90 nL of each) were transferred by Mosquito in the white Proxiplate plus 384-well microplate (Perkin Elmer). The assay mixture (typical 9 μL) containing 6 nM WDR5 and 20 nM Biotin-MLL1 WIN peptide (3762-3773) in the assay buffer (25 mM Hepes, pH7.5, 0.05% Tween 20, 2 mM DTT, 100 mM NaCl, 0.1% BSA) were added to the wells. For counter assay, a 9 μL solution of 15 nM Biotin-PEG-His peptide was added into the wells. After 20 min incubation at rt, a 3 μL detection solution containing 14 μg/ml Phycolink Streptavidin Allophycocyanin (Prozyme), 2 nM Anti-His-Eu (PerkinElmer) in assay buffer was then added. After 1 hr incubation, the plate was read in the EnVision reader (PerkinElmer) using the HTRF protocol (The protocol set-up: Lance/Delfia dual enhancer mirror, excitation at 320 UV2 (TRF), emission at APC665, 2nd emission at EuropiμM 615). HTRF signals were normalized based on the reading coming from the positive (maximum signal control) and negative controls (minimum signal control) to give percentage of activities left. The data were then fit to a dose response equation using the program Helios (Novartis) to get the IC50 values. Helios is a Novartis in-house assay data analysis software using the methods described by Normolle, D. P., Statistics in Medicine, 12:2025-2042 (1993); Formenko, I. et al., Computer Methods and programs in Biomedicine, 82, 31-37 (2006); Sebaugh, J. L., Pharmaceutical Statistics, 10:128-134 (2011); Kelly, C. et al., Biometrics, 46(4):1071-1085 (1990); and Kahm, M, et al., Journal of Statistical Software, 33(7):(2010) (grofit: Fitting Biological Growth Curves with R, pages 1-21, available at http://www.jstatsoft.org/).
Background: In TR-FRET formats the signal depends on donor and acceptor labels being close together.

In assay [1] the target is wild type MLL1 four-member complex (MLL1-4C) (Homo sapiens, UniProt P61964). In words: MLL1 LC-MS assay (SAH production). It is filed as biochemical. The conditions noted are these: read-out: (b) MLL LCMS Peptide Val.v.1 Qualified AC50. The method, then:
The compounds of the present disclosure were serially and separately diluted 3-fold in DMSO to obtain a total of eight or twelve concentrations. Then the test compounds at each concentration (120 nL of each) were transferred by Mosquito into white Proxiplate plus 384-well microplate (PerkinElmer). Solutions (6 μL) of 60 nM wild type MLL1 four-member complex (MLL1-4C) and 5 μM SAM in the reaction buffer (20 mM Tris-HCl, pH8.0, 0.01% Tween 20, 1 mM DTT, 10 mM MgCl2, 0.01% BSA) were added to the wells that were then incubated with the test compound for 20 min. A 6 μL solution of 20 μM of the peptide substrate H3K4me0 (histone H3[1-21]-Biotin) in the reaction buffer was added to initiate each reaction. The final components in the reaction solution include 30 nM MLL1-4C, 2.5 μM SAM, and 10 μM H3K4me0 with varying concentration of the compounds. A positive control consisted of 30 nM MLL1-4C, 2.5 μM SAM, and 10 μM substrate in the absence of the test compound, and a negative control consisted of 2.5 μM SAM, and 10 μM substrate only. Each reaction was incubated at rt for 120 min, then stopped by addition of 3 μL per of quench solution (2.5% TFA with 320 nM d4-SAH). The reaction mixture was centrifuged (Eppendorf centrifuge 5810, Rotor A-4-62) for 2 min at 2000 rmp. The SAH production from the enzymatic assays were monitored by LC-MS/MS on an API 4000 triple quadrupole mass spec with Turbolon Spray (Applied Biosystem) coupled with Prominenece UFLC (Shimazu). The level of SAH production were then normalized based on the values coming from the positive and negative controls to give percent enzyme activities. The data were then fit to a dose response equation using the program Helios (Novartis) to get the IC50 values of the test compound. Helios is a Novartis in-house assay data analysis software using the methods described by Normolle, D. P., Statistics in Medicine, 12:2025-2042 (1993); Formenko, I. et al., Computer Methods and programs in Biomedicine, 82, 31-37 (2006); Sebaugh, J. L., Pharmaceutical Statistics, 10:128-134 (2011); Kelly, C. et al., Biometrics, 46(4):1071-1085 (1990); and Kahm, M, et al., Journal of Statistical Software, 33(7):(2010) (grofit: Fitting Biological Growth Curves with R, pages 1-21, available at http://www.jstatsoft.org/).

Another assay relates to MV4-11 cells. In words: MV4-11 6-day cell growth CTG (CellTiter-Glo) assay. It counts as cell-based. The conditions noted are these: Homo sapiens, MV4-11, 144 h, 6 days, read-out: (c) MLL/WDR5 cell proliferation assay//MLL/WDR5 proliferation MV4:11 Qualified AC50. The method, then: MV4-11 6-Day Cell Growth CTG (CellTiter-Glo) Assay
Acute myeloid leukemia cell MV4-11 (ATCC® CRL-9591™) was cultured with RPMI 1640 medium (Thermo Fisher Scientific, cat #11875) supplemented with 10% FBS (Thermo Fisher Scientific, cat #10099141) in humidified incubator at 37° C., 5% CO2. To assess the effect of WDR5 inhibitor on cell growth, the compound of the present invention was dissolved in DMSO and serially diluted at 1:3 for 12 points starting from 10 mM then 200 nL for the replicate of each dose per well was dispensed to Viewplate-384 Black (Perkin Elmer). Exponentially growing MV4-11 cells were seeded at the density of 300 cells per well in 40 μL to the plate, so the final compound working concentration starts from 50 μM. After 6 days, 40 μL CellTiter-Glo (Promega, cat #G7573) was added into the cell culture well and luminescence was read with Envision (Perkin Elmer) to determine the viable cells. The percentage inhibition was calculated against the samples treated with DMSO only and the data were used for dose response curve fitting in GraphPad Prism to get the IC50 of representative compound of present invention, which reflects the inhibition of WDR5 activity in the proliferation of MV4;11.
For orientation: Cellular ATP, detected with luciferase, serves as a proxy for viable cell number.

Regarding `CNc1nccn1Cc1cc2c(c(-c3cc([C@@H](C)O)cnc3Cl)c1)CCN(Cc1ccc(F)c(OC)c1)C2=O` (single isomer, unassigned) [Example 75], the IC50 on WDR5 is under 10 nM. Moreover, the AC50 (in assay [1]; in the assay with MV4-11 cells) was 10 to 1000 nM in each case.

Turning to `CCOc1cc([C@H](C)N2CCc3c(CN4CC(F)(F)C4)cc(Cn4ccnc4NC)cc3C2=O)ncc1C#N` [Example 40, (S)-6-(1-(5-((3,3-difluoroazetidin-1-yl)methyl)-7-((2-(methylamino)-1H-imidazol-1-yl)methyl)-1-oxo-3,4-dihydroisoquinolin-2(1H)-yl)ethyl)-4-ethoxynicotinonitrile], at WDR5, the IC50 lay within 10 to 1000 nM. Besides, the AC50 (in assay [1]; in the assay on MV4-11 cells) was 10 to 1000 nM in each case.

As to `CCOc1cc([C@H](C)N2CCc3c(cc(CCN4C[C@@H](O)C[C@H]4C)cc3-c3ccc(F)nc3C)C2=O)ncc1C#N` [Example 226], the IC50 on WDR5 is under 10 nM. The AC50 (in assay [1]; in the assay on MV4-11 cells) was 10 to 1000 nM in each case.

As to `CNc1nccn1Cc1cc2c(c(N3CCCC3)c1)CCN([C@@H](C)c1cc(OC)c(F)cn1)C2=O` [Example 89, (S)-2-(1-(5-fluoro-4-methoxypyridin-2-yl)ethyl)-7-((2-(methylamino)-1H-imidazol-1-yl)methyl)-5-(pyrrolidin-1-yl)-3,4-dihydroisoquinolin-1(2H)-one], on WDR5, the IC50 is under 10 nM. For the same molecule, the AC50 (in assay [1]; in the assay with MV4-11 cells) was 10 to 1000 nM in each case.

For `COc1cc(CN2CCc3c(cc(CCN(C)C)cc3-c3cn(C)nc3C(F)(F)F)C2=O)ccc1F` [Example 255], at WDR5, the IC50 is 10 to 1000 nM. Further, the AC50 in assay [1] lay within 10 to 1000 nM; in the assay with MV4-11 cells it was 1000 to 25000 nM.

For `CCOc1cc([C@H](C)N2CCc3c(cc(CCN(C)CC)cc3-c3cc(C)nnc3C)C2=O)ncc1C#N` [Example 173, (S)-6-(1-(5-(3,6-dimethylpyridazin-4-yl)-7-(2-(ethyl(methyl)amino)ethyl)-1-oxo-3,4-dihydroisoquinolin-2(1H)-yl)ethyl)-4-ethoxynicotinonitrile], the IC50 on WDR5 is under 10 nM. Besides, the AC50 (in assay [1]; with MV4-11 cells) was 10 to 1000 nM each time.

With `CCOc1cc(CN2CCc3c(cc(CCN(C)CC)cc3-c3cc(C)ncc3Cl)C2=O)ncc1C#N` [Example 133, 6-((5-(5-chloro-2-methylpyridin-4-yl)-7-(2-(ethyl(methyl)amino)ethyl)-1-oxo-3,4-dihydroisoquinolin-2(1H)-yl)methyl)-4-ethoxynicotinonitrile], the IC50 on WDR5 was under 10 nM. Further, the AC50 (in assay [1]; in the assay on MV4-11 cells) was 10 to 1000 nM throughout.

On to `CNc1nccn1Cc1cc(-c2cc(CO)cnc2Cl)c2ccn(Cc3ccc(OC)cc3)c(=O)c2c1` [Example 105, 5-(2-chloro-5-(hydroxymethyl)pyridin-3-yl)-2-(4-methoxybenzyl)-7-((2-(methylamino)-1H-imidazol-1-yl)methyl)isoquinolin-1(2H)-one], for which the IC50 on WDR5 was 10 to 1000 nM. Besides, the AC50 (in assay [1]; with MV4-11 cells) was 10 to 1000 nM throughout.

In the case of `CCOc1cc([C@H](C)N2CCc3c(cc(CCN(C)CCF)cc3-c3ccc(F)nc3C)C2=O)ncc1C#N` [Example 247], the IC50 on WDR5 was in the range of 10 to 1000 nM. The AC50 (in assay [1]; in the assay on MV4-11 cells) was 10 to 1000 nM throughout.

With `CNc1nccn1Cc1cc2c(c(-c3cc(CO)cnc3Cl)c1)CCN(Cc1cccc(OC(F)F)c1)C2=O` [Example 73, 5-(2-chloro-5-(hydroxymethyl)pyridin-3-yl)-2-(3-(difluoromethoxy)benzyl)-7-((2-(methylamino)-1H-imidazol-1-yl)methyl)-3,4-dihydroisoquinolin-1(2H)-one], on WDR5, the IC50 was 10 to 1000 nM. The AC50 (in assay [1]; with MV4-11 cells) was 10 to 1000 nM throughout.

For the molecule `CCOc1cc(C(C)N2CCc3c(cc(CCN(C)CC)cc3-n3ccnc3)C2=O)ncc1C#N` (stereo not shown) [Example 208], on WDR5, the IC50 is 10 to 1000 nM. The figures for the AC50 (in assay [1]; with MV4-11 cells) were 10 to 1000 nM and 1000 to 25000 nM, respectively.

For `CCOc1cc(CN2CCc3c(cc(Cn4ccnc4C)cc3-c3cc(C)nn3C)C2=O)ncc1C#N` [Example 300], on WDR5, the IC50 was under 10 nM. In assay [1], the AC50 lay in the range of 10 to 1000 nM.

As for `CNc1nccn1Cc1ccc2cnn(C(C)c3cnc(F)c(OC)c3)c(=O)c2c1` (stereo not shown) [Example 109, 2-(1-(6-fluoro-5-methoxypyridin-3-yl)ethyl)-7-((2-(methylamino)-1H-imidazol-1-yl)methyl)phthalazin-1(2H)-one], the IC50 on WDR5 lay within 10 to 1000 nM. Moreover, in assay [1], the AC50 was 10 to 1000 nM.

In the case of `CCOc1cc([C@H](C)N2CCc3c(cc(Cn4ccnc4C)cc3-c3c[nH]nc3C)C2=O)ncc1C#N` [Example 302], the IC50 on WDR5 is under 10 nM.

As for `CCOc1cc(CN2CCc3c(cc(Cn4ccnc4C)cc3-c3cn(S(C)(=O)=O)nc3C)C2=O)ncc1C#N` [Example 301], the IC50 on WDR5 is under 10 nM. Further, in assay [1], the AC50 was 10 to 1000 nM.

`CCOc1cc(C(C)N2CCc3c(cc(CCN(C)CC)cc3C3=CCNCC3)C2=O)ncc1C#N` (stereo not shown) [Example 159, 4-ethoxy-6-(1-(7-(2-(ethyl(methyl)amino)ethyl)-1-oxo-5-(1,2,3,6-tetrahydropyridin-4-yl)-3,4-dihydroisoquinolin-2(1H)-yl)ethyl)nicotinonitrile]: the IC50 at WDR5 lay within 10 to 1000 nM. Besides, the AC50 in assay [1] was 1000 to 25000 nM.

Regarding `CCOc1cc(C(C)N2CCc3c(cc(CCN(C)CC)cc3-n3cccn3)C2=O)ncc1C#N` (stereo not shown) [Example 209], at WDR5, the IC50 fell in the range of 10 to 1000 nM. Further, in assay [1], the AC50 was 10 to 1000 nM.

On to `CNc1nccn1Cc1ccc2ncn(C(C)c3cnc(F)c(OC)c3)c(=O)c2c1` (stereo not shown) [Example 110, 3-(1-(6-fluoro-5-methoxypyridin-3-yl)ethyl)-6-((2-(methylamino)-1H-imidazol-1-yl)methyl)quinazolin-4(3H)-one], for which the IC50 at WDR5 lay within 10 to 1000 nM. The AC50 in assay [1] is 10 to 1000 nM.
